Series [1] concerns the target T1, CK2 (Homo sapiens, UniProt P68400).
T1 construct: made in house
T1 sequence (P68400 1-336): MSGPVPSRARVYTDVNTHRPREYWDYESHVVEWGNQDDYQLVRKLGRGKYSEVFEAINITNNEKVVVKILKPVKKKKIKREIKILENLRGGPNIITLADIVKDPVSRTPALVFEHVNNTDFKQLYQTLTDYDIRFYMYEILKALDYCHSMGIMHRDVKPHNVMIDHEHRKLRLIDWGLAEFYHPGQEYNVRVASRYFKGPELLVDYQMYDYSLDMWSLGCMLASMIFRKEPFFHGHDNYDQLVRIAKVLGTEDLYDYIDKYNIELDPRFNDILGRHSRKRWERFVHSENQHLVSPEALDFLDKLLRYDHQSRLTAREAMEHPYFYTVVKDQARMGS
Particulars: number of kinases; ref Battistutta et al., 2011; cited from earlier work.

Series [2] concerns the target T2, full-length CK2α (FL-CK2α) (Homo sapiens, UniProt P68400).
T2 construct: made in house
In words: Radioactive kinase assay, CK2-tide substrate, full-length CK2α. The series is classed as biochemical. Particulars: CK2-tide substrate 0.1 mM, 20 μM ATP, pH 7.5; mean ± SEM. On the procedure: (§1) For IC50 (concentrations inducing 50% inhibition) analysis, recombinant tetrameric CK2 (α2β2), or C-terminal-deleted CK2α (CK2α^1–336), or full length CK2α (7.5 ng) were incubated with 0.1 mM synthetic peptide substrate RRRADDSDDDDD (CK2-tide), in a phosphorylation buffer containing 50 mM Tris-HCl pH 7.5, 10 mM MgCl2, 20 μM [γ-^33P]ATP (1,000–2,000 cpm/pmol), in a final volume of 20 μl, with increasing concentrations of the inhibitor. In the case of tetrameric CK2, 0.1 M NaCl was also present in the phosphorylation mixture. Controls were performed in the absence of any inhibitor, but with equal volume of vehicle (H2O). Reactions were performed at 30°C for 12 min and stopped by sample absorption on phospho-cellulose papers. Papers were washed three times with 75 mM phosphoric acid and counted in a scintillation counter (PerkinElmer). In the case of casein substrate (used at 0.05 mg/ml concentration), reactions were stopped by the addition of Laemmli loading buffer, samples were analyzed by 11% SDS-PAGE, and radioactive bands were detected and quantified by digital autoradiography (Cyclone plus storage phosphor system, PerkinElmer). IC50 calculation was obtained by analysis of the results with GraphPad Prism 7.0a software.

Series [3] in a line: Stability monitored by UV-vis in buffered aqueous environment. Particulars: buffered/saline aqueous environments, up to pH 8.5, over 24 h. In kind it is physicochemical. On the procedure: Na10[Ru4(H2O)4(μ-O)4(μ-OH)2(γ-SiW10O36)2], Ru4POM, was prepared following a published procedure ([Galiano et al., 2021]). Ru4POM identity was confirmed by FTIR, while its stability was monitored by UV-vis, by using a Cary 100 instrument (Varian), in buffered aqueous environment (25 mM Tris, pH 8.5) over 24 h (Supplementary Figure S6).
Suppl. Fig. 6. UV-vis spectrophotometric monitoring of Ru4POM (5µM) stability in 25 mM Tris and
500 mM NaCl (pH=8.5) over time (up to 24 h). A quartz cuvette with path length 1 cm was used.
(1 picture or pasted object on this page, not shown here)

For series [4], the system named is endogenous CK2 in HEK-293T cells. Description: Endo-cellular CK2 activity assay (Akt1 phospho-Ser129 Western blot). In kind it is cell-based, human. The method, then: HEK-293T cells (human embryo kidney fibroblasts) were cultured in an atmosphere containing 5% CO2, maintained in DMEM medium (Sigma), supplemented with 10% (v/v) fetal bovine serum (FBS), 2 mM L-glutamine, 100 U/ml penicillin, and […] streptomycin. Cell treatments with Ru4POM were performed in the culture medium. When used, the cationic transfection reagents PEI (Thermo Scientific) or JetOpitmus (Polyplus-transfection) were mixed with Ru4POM and incubated for 1 h at room temperature, before adding the mix to the cells. After 24 h cells were lysed as previously described ([Zanin et al., 2012]). Protein concentration was determined by the Bradford method.
Endo-cellular CK2 activity was evaluated by assessing the phosphorylation state of the CK2 substrate Akt phospho-Ser129 (Abcam) ([Ruzzene et al., 2010]). For this purpose, equal amounts of proteins from treated cells were loaded on 11% SDS-PAGE, blotted on Immobilon-P membranes (Millipore), processed in Western blot (WB), and detected by chemiluminescence.
Quantitation of the signal was obtained by chemiluminescence detection on ImageQuant LAS 500 (GE Healthcare Life Sciences) and analysis with Carestream Molecular Imaging software (Carestream).
A general note: A western blot detects proteins with antibodies after separation by electrophoresis.

The target of series [5] is T3, tetrameric CK2 (α2β2) (Homo sapiens, UniProt P68400).
T3 construct: made in house
In words: Radioactive kinase assay, CK2-tide substrate, tetrameric holoenzyme. Particulars: 0.1 M NaCl present, mean ± SEM. The series is classed as biochemical. On the procedure: as §1

In series [6] the target is T4, CK2α (Homo sapiens, UniProt P68400).
T4 construct: Human CK2α (residues 1-336) was produced as previously reported; made in house; host or cells: E. coli BL21-DE3
T4 sequence (P68400 1-336): T1 sequence (P68400 1-336)
In words: Isothermal titration calorimetry. In kind it is binding. Particulars: 25 mM Tris, 500 mM NaCl. On the procedure: (§2) Recombinant full-length CK2α and tetrameric CK2 (α2β2) [produced as in ([Venerando et al., 2013])] were kindly provided by Dr. Andrea Venerando (University of Parma, Italy). Human CK2α (residues 1-336) was produced as previously reported ([Papinutto et al., 2012]). Briefly, after expression in E. coli BL21-DE3, the protein was purified by two chromatographic steps, with heparin affinity chromatography (5 ml HiTrap Eparin HP column, GE Healthcare) and size-exclusion chromatography (HiLoad 16/60 Superdex 75 pg column, GE Healthcare). Protein eluted in 25 mM Tris, 500 mM NaCl, 1 mM DTT, pH = 8.5 was concentrated to 13.3 mg/ml, flash-frozen in liquid nitrogen and stored at −80°C.
Isothermal titration calorimetry (ITC) experiments were performed using a Malvern PEAQ-ITC microcalorimeter, at 25°C, with a 270 μl sample cell and a computer controlled microsyringe for titrant injections. CK2α (20–30 μM) and Ru4POM (200–400 μM) samples were in 25 mM Tris, 500 mM NaCl, pH = 8.5. After baseline stabilization, a further delay of 60 s was used before the first injection. In each individual titration, a starting Ru4POM injection of 0.4 μl in 0.8 s was followed by other 12 injections of 3 μl with a duration of 6 s each. A delay of 150 s was applied between each Ru4POM injection. Wiseman plot of integrated data was automatically obtained by software analysis (excluding the heat referred to the first 0.4 μl injection) and then it was fitted by theoretical binding curve using the one site model.

The target in series [7] is T5, C-terminal-deleted CK2α (CK2α 1-336) (Homo sapiens, UniProt P68400).
T5 construct: Human CK2α (residues 1-336) was produced as previously reported; made in house; host or cells: E. coli BL21-DE3
T5 sequence (P68400 1-336): T1 sequence (P68400 1-336)
In words: Radioactive kinase assay, CK2-tide substrate, C-terminal truncated CK2α. The series is classed as biochemical. Particulars: CK2-tide substrate 0.1 mM, 20 μM ATP, pH 7.5, mean ± SEM. The method, then: as §2
For IC50 (concentrations inducing 50% inhibition) analysis, recombinant tetrameric CK2 (α2β2), or C-terminal-deleted CK2α (CK2α^1–336), or full length CK2α (7.5 ng) were incubated with 0.1 mM synthetic peptide substrate RRRADDSDDDDD (CK2-tide), in a phosphorylation buffer containing 50 mM Tris-HCl pH 7.5, 10 mM MgCl2, 20 μM [γ-^33P]ATP (1,000–2,000 cpm/pmol), in a final volume of 20 μl, with increasing concentrations of the inhibitor. In the case of tetrameric CK2, 0.1 M NaCl was also present in the phosphorylation mixture. Controls were performed in the absence of any inhibitor, but with equal volume of vehicle (H2O). […]

Series [8] deals with T1, CK2. Description: Radioactive kinase assay with casein as substrate. In kind it is biochemical. Particulars: casein 0.05 mg/ml replaced CK2-tide. The method, then:
as §1

The target in series [9] is T1, CK2. In words: Kinetics analysis (Michaelis-Menten) with increasing CK2-tide or casein. The series is classed as biochemical. The method, then:
as §1
For kinetics analysis, the assays were performed with increasing concentrations of CK2-tide or casein, in the phosphorylation buffer described above, but with 100 μM ATP concentration.

Series [10] has as its system T6, recombinant CK2α.
T6 construct: made in house
In words: Radioactive phosphorylation assay at different pH and NaCl concentration. The series is classed as biochemical. Particulars: 5 nM Ru4POM. The method, then:
as §1, with “[…],” for “in a phosphorylation buffer containing 50 mM Tris-HCl pH 7.5,”, “In the case of tetrameric CK2, 0.1 M NaCl was also present in the phosphorylation mixture.” left out

Details of series [11]: method as in Prudent et al., 2008. Particulars: ref Prudent et al., 2008; cited from earlier work.

“Also recorded” adds a separate entry of the source.

T2 sequence (P68400 whole entry): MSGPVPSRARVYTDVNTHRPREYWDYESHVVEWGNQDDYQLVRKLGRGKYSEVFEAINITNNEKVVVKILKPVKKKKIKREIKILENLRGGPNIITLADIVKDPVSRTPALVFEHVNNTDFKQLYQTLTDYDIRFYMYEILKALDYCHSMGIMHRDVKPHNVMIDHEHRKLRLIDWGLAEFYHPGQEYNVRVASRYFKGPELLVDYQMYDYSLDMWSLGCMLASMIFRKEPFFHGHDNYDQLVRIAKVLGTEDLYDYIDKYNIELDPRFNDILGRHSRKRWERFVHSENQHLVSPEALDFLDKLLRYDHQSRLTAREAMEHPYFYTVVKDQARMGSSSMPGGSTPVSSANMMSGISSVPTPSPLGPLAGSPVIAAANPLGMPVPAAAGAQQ
T3 sequence (P68400 whole entry): as above
T3 sequence (P67870 2-215 partner limits assumed): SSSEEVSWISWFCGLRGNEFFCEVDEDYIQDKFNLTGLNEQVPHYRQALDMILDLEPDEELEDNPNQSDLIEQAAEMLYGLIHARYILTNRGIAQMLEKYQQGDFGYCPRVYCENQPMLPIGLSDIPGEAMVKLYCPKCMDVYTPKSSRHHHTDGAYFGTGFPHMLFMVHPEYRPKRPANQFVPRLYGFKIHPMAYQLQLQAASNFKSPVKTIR

Consider `O=C(O)c1ccc2c(c1)nc(Nc1cccc(Cl)c1)c1ccncc12` [CX-4945, silmitasertib], for which the “other kinases inhibited with nanomolar activity” value in series [1] is reported as 12.

In the case of (NH4)12[Mo36(NO)4O108(H2O)16] [Mo36POM], the IC50 (as a rule, the concentration that gives 50% inhibition) in [2] is greater than 1000 nM.

As to “(S,S)-(^ n Bu4N)4[γ-SiW10O36{(C16H9)SO2NH(CH2)3Si}2O] [TBA (L)Trp-SiW10]”, the IC50 in series [2] was 8.5 ± 0.4 nM.

As for “(^ n Bu4N)3H[γ-SiW10O36{(C5H7N2OS)(CH2)4CONH(CH2)3Si}2O] [TBA Biotin-SiW10]”, the 50% inhibitory concentration (IC50) in [2] was 5.3 ± 0.6 nM.

As to “Na10[Ru4(H2O)4(μ-O)4(μ-OH)2(γ-SiW10O36)2] [Ru4POM]”, the “stability in aqueous environment” value in series [3] was “stability was confirmed; also recorded: stable”. In addition, the “CK2 inhibition in intact cells” value in series [4] (HEK-293T cells treated with the free compound) is reported as “do not detect any CK2 inhibition”. Moreover, the “Akt1 phospho-Ser129 phosphorylation” value in series [4] (HEK-293T, 10 μM Ru4POM, 24 h, combined with PEI or JetOptimus) was “reduced the phosphorylation of this site”. In [4] (inferred from lack of CK2 inhibition in treated cells), the cell permeability entry was “too small cell permeability”. In addition, the half-inhibitory concentration (IC50) in [5] is 5.57 ± 0.68 nM; in series [7], 3.63 ± 0.09 nM; in series [8], 18.5 ± 1.04 nM; in [2] it was 3.63 ± 0.17 nM. In [6] (pH 8.5), this compound showed a stoichiometry of 1.04 ± 0.02. This compound yielded a ΔG in series [6] (pH 8.5) of -7.763 ± 0.11 kcal/mol. For the same compound, in [6] (pH 8.5), the ΔH is -7.885 ± 0.339 kcal/mol. In series [6] (pH 8.5), the “−TΔS” value was 0.12 ± 0.581 kcal/mol. For the same compound, in series [6] (pH 8.5, 25°C, one site model, two experiments, read-out: apparent mean KD), the Kd was found to be 2090 ± 360 nM. For the same compound, the “mode of inhibition towards substrates” value in series [9] (CK2-tide peptide and casein) is reported as “competitive inhibition”. For the same compound, in series [9] (in presence of 5 nM Ru4POM, 100 μM ATP, ± SEM), the “CK2-TIDE Vmax” value is listed as 15019 ± 1635 cpm. Moreover, the “CASEIN Vmax” value in series [9] (in presence of 18 nM Ru4POM, 100 μM ATP, ± SEM) was found to be 75417 ± 20117 a.u. For the same compound, the “inhibition of CK2 activity” value in series [10] (NaCl 0.2 M, CK2-tide) is recorded as 29%; in series [10] (NaCl 0.5 M, CK2-tide) it was 22%; in series [10] (pH 7.5, without NaCl, CK2-tide), 75%; in series [10] (pH 8.5, CK2-tide) it was 66%.

Take [P2Mo18O62]^6−: in series [11], the “chemical stability in an aqueous environment” value is on record as “low chemical stability”.

As for “[γ-SiW10O36{(C5H7N2OS)(CH2)4CONH(CH2)3Si}2O]^4− [Na Biotin-SiW10]”, the IC50 in series [2] was 16.4 ± 1.3 nM.

Take “[γ-SiW10O36{(C16H9)SO2NH(CH2)3Si}2O]^4− [Na (D)Trp-SiW10]”: the IC50 in series [2] stood at 12.8 ± 1.7 nM.

On to “[γ-SiW10O36{(C16H9)SO2NH(CH2)3Si}2O]^4− [Na (L)Trp-SiW10]”, for which, in [2], the half-inhibitory concentration (IC50) turned out to be 18.2 ± 1.9 nM.
